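Exposure lasted 48 hours, with cells grown in 96-well plates and compounds tested at five concentrations. Abbreviation: GI50, concentration required for 50% inhibition of growth. TGI is the concentration that stops growth completely.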
Key:
Test in all cases: NCI-60 cell line screen, 48 h
786-0 renal = tested on: 786-0 renal
A498 renal = tested on: A498 renal
A549 NSCLC = tested on: A549 NSCLC
ACHN renal = tested on: ACHN renal
BT-549 breast = tested on: BT-549 breast
CAKI-1 renal = tested on: CAKI-1 renal
CCRF-CEM leukemia = tested on: CCRF-CEM leukemia
COLO 205 colon = tested on: COLO 205 colon
DU-145 prostate = tested on: DU-145 prostate
EKVX NSCLC = tested on: EKVX NSCLC
HCC-2998 colon = tested on: HCC-2998 colon
HCT-116 colon = tested on: HCT-116 colon
HCT-15 colon = tested on: HCT-15 colon
HOP-62 NSCLC = tested on: HOP-62 NSCLC
HOP-92 NSCLC = tested on: HOP-92 NSCLC
HS 578T breast = tested on: HS 578T breast
HT29 colon = tested on: HT29 colon
K-562 leukemia = tested on: K-562 leukemia
KM12 colon = tested on: KM12 colon
LOX IMVI melanoma = tested on: LOX IMVI melanoma
M14 melanoma = tested on: M14 melanoma
MALME-3M melanoma = tested on: MALME-3M melanoma
MCF7 breast = tested on: MCF7 breast
MDA-MB-231 breast = tested on: MDA-MB-231 breast
MDA-MB-435 = tested on: MDA-MB-435
MOLT-4 leukemia = tested on: MOLT-4 leukemia
NCI-H226 lung = tested on: NCI-H226 lung
NCI-H23 lung = tested on: NCI-H23 lung
NCI-H460 lung = tested on: NCI-H460 lung
NCI-H522 lung = tested on: NCI-H522 lung
OVCAR-3 ovarian = tested on: OVCAR-3 ovarian
OVCAR-4 ovarian = tested on: OVCAR-4 ovarian
OVCAR-5 ovarian = tested on: OVCAR-5 ovarian
OVCAR-8 ovarian = tested on: OVCAR-8 ovarian
PC-3 prostate = tested on: PC-3 prostate
RPMI-8226 leukemia = tested on: RPMI-8226 leukemia
SF-268 CNS = tested on: SF-268 CNS
SF-295 CNS = tested on: SF-295 CNS
SF-539 CNS = tested on: SF-539 CNS
SK-MEL-2 melanoma = tested on: SK-MEL-2 melanoma
SK-MEL-28 melanoma = tested on: SK-MEL-28 melanoma
SK-MEL-5 melanoma = tested on: SK-MEL-5 melanoma
SK-OV-3 ovarian = tested on: SK-OV-3 ovarian
SN12C renal = tested on: SN12C renal
SNB-19 CNS = tested on: SNB-19 CNS
SNB-75 CNS = tested on: SNB-75 CNS
SW-620 colon = tested on: SW-620 colon
T-47D breast = tested on: T-47D breast
TK-10 renal = tested on: TK-10 renal
U251 CNS = tested on: U251 CNS
UACC-62 melanoma = tested on: UACC-62 melanoma
UO-31 renal = tested on: UO-31 renal

`CC(=O)/C=C/C1=C(c2ccsc2)c2ccccc2CC1` was tested, and the GI50 (786-0 renal) was 34.1 µM, the TGI (786-0 renal) was greater than 100 µM and the GI50 (A498 renal) was 24.7 µM. The TGI (A498 renal) was 69.7 µM, the GI50 (A549 NSCLC) was 17.4 µM and the TGI (A549 NSCLC) was 37.5 µM. It also gave a GI50 (ACHN renal) of 25.9 µM, a TGI (ACHN renal) of 61.1 µM and a GI50 (BT-549 breast) of 29.5 µM. The TGI (BT-549 breast) was 69.3 µM, the GI50 (CAKI-1 renal) was 27.7 µM and the TGI (CAKI-1 renal) was 83.4 µM. For the same molecule, the GI50 (CCRF-CEM leukemia) was 23.6 µM, the TGI (CCRF-CEM leukemia) was 47.6 µM and the GI50 (COLO 205 colon) was 36.5 µM. It also gave a TGI (COLO 205 colon) greater than 100 µM, a GI50 (DU-145 prostate) of 40.8 µM and a TGI (DU-145 prostate) greater than 100 µM. It also gave a GI50 (EKVX NSCLC) of 35.9 µM, a TGI (EKVX NSCLC) greater than 100 µM and a GI50 (HCC-2998 colon) of 18.2 µM. For the same molecule, the TGI (HCC-2998 colon) was 36.2 µM, the GI50 (HCT-116 colon) was 22.8 µM and the TGI (HCT-116 colon) was 50.3 µM. It also gave a GI50 (HCT-15 colon) of 18.6 µM, a TGI (HCT-15 colon) of 35.3 µM and a GI50 (HOP-62 NSCLC) of 26.1 µM. For the same molecule, the TGI (HOP-62 NSCLC) was 66.8 µM, the GI50 (HOP-92 NSCLC) was 17.2 µM and the TGI (HOP-92 NSCLC) was 50.6 µM. For the same molecule, the GI50 (HS 578T breast) was 48.4 µM, the TGI (HS 578T breast) was greater than 100 µM and the GI50 (HT29 colon) was 54.3 µM. It also gave a TGI (HT29 colon) greater than 100 µM, a GI50 (K-562 leukemia) of 21.3 µM and a TGI (K-562 leukemia) of 44 µM. The GI50 (KM12 colon) was 17.2 µM, the TGI (KM12 colon) was 33 µM and the GI50 (LOX IMVI melanoma) was 17.9 µM. For the same molecule, the TGI (LOX IMVI melanoma) was 31.9 µM, the GI50 (M14 melanoma) was 17.8 µM and the TGI (M14 melanoma) was 37.1 µM. For the same molecule, the GI50 (MALME-3M melanoma) was 23.6 µM, the TGI (MALME-3M melanoma) was 58.1 µM and the GI50 (MCF7 breast) was 21.4 µM. For the same molecule, the TGI (MCF7 breast) was 40 µM, the GI50 (MDA-MB-231 breast) was 19.3 µM and the TGI (MDA-MB-231 breast) was 49.4 µM. The GI50 (MDA-MB-435) was 17.9 µM, the TGI (MDA-MB-435) was 33.8 µM and the GI50 (MOLT-4 leukemia) was 17.6 µM. For the same molecule, the TGI (MOLT-4 leukemia) was 37.1 µM, the GI50 (NCI-H226 lung) was 18.8 µM and the TGI (NCI-H226 lung) was 44.4 µM. The GI50 (NCI-H23 lung) was 20.3 µM, the TGI (NCI-H23 lung) was 39.6 µM and the GI50 (NCI-H460 lung) was 34.4 µM. For the same molecule, the TGI (NCI-H460 lung) was greater than 100 µM, the GI50 (NCI-H522 lung) was 15.3 µM and the TGI (NCI-H522 lung) was 31.3 µM. The GI50 (OVCAR-3 ovarian) was 19.4 µM, the TGI (OVCAR-3 ovarian) was 39.7 µM and the GI50 (OVCAR-4 ovarian) was greater than 100 µM. For the same molecule, the TGI (OVCAR-4 ovarian) was greater than 100 µM, the GI50 (OVCAR-5 ovarian) was 27.1 µM and the TGI (OVCAR-5 ovarian) was greater than 100 µM. The GI50 (OVCAR-8 ovarian) was 18.2 µM, the TGI (OVCAR-8 ovarian) was 39.3 µM and the GI50 (PC-3 prostate) was 23.9 µM. The TGI (PC-3 prostate) was 65.3 µM, the GI50 (RPMI-8226 leukemia) was 23.2 µM and the TGI (RPMI-8226 leukemia) was 47.6 µM. For the same molecule, the GI50 (SF-268 CNS) was 19.5 µM, the TGI (SF-268 CNS) was 41.1 µM and the GI50 (SF-295 CNS) was 19.3 µM. It also gave a TGI (SF-295 CNS) of 49.7 µM, a GI50 (SF-539 CNS) of 25.1 µM and a TGI (SF-539 CNS) of 60.7 µM. For the same molecule, the GI50 (SK-MEL-2 melanoma) was 21.2 µM, the TGI (SK-MEL-2 melanoma) was 38 µM and the GI50 (SK-MEL-28 melanoma) was 49.1 µM. The TGI (SK-MEL-28 melanoma) was greater than 100 µM, the GI50 (SK-MEL-5 melanoma) was 16.3 µM and the TGI (SK-MEL-5 melanoma) was 31.6 µM. The GI50 (SK-OV-3 ovarian) was 64.4 µM, the TGI (SK-OV-3 ovarian) was greater than 100 µM and the GI50 (SN12C renal) was 20.9 µM. It also gave a TGI (SN12C renal) of 47.2 µM, a GI50 (SNB-19 CNS) of 42.5 µM and a TGI (SNB-19 CNS) greater than 100 µM. It also gave a GI50 (SNB-75 CNS) greater than 100 µM, a TGI (SNB-75 CNS) greater than 100 µM and a GI50 (SW-620 colon) of 33.7 µM. The TGI (SW-620 colon) was greater than 100 µM, the GI50 (T-47D breast) was 66 µM and the TGI (T-47D breast) was greater than 100 µM. For the same molecule, the GI50 (TK-10 renal) was 33.6 µM, the TGI (TK-10 renal) was greater than 100 µM and the GI50 (U251 CNS) was 22.1 µM. It also gave a TGI (U251 CNS) of 48.8 µM, a GI50 (UACC-62 melanoma) of 16.2 µM and a TGI (UACC-62 melanoma) of 37.1 µM. The GI50 (UO-31 renal) was 19.4 µM and the TGI (UO-31 renal) was 43.6 µM.
